Values of other authors as cited in patent publication US20200197416A1, “PHARMACEUTICAL COMPOSITION COMPRISING ABIRATERONE ACETATE AND DARULOTAMIDE” (NanGenex Nanotechnology Incorporated, priority 2017, published 2020).
Where two headings read alike, the source gives them in different places.

Experiments:
[1] = for compound present in feces, % of the administered dose: oral 14C-abiraterone acetate
[2] = tested on: serum testosterone and other androgens; settings: patients, placebo-controlled phase 3 clinical trial
[3] = target: P-glycoprotein (P-gp) (Homo sapiens, UniProt P08183)
[4] = not given; remark: listed apart in the source
[5] = not given; remark: listed apart in the source
[6] = not given; remark: listed apart in the source
[7] = in vivo
[8] = tested on: AR; settings: preclinical trials
[9] = for geometric mean Cmax,md / median tmax.md: day 7
[10] = tested on: PSA levels; settings: early phase clinical trials, Western mCRPC patients
[11] = tested on: human plasma proteins, albumin and alpha-1 acid glycoprotein
[12] = not given; remark: listed apart in the source
[13] = high-fat (57% fat, 825 calories) meal
[14] = low-fat meal (7% fat, 300 calories)
[15] = single dose of Abiraterone acetate, up to
[16] = 1,000 mg daily, patients with metastatic CRPC

Chain of P-glycoprotein (P-gp) (P08183 whole entry): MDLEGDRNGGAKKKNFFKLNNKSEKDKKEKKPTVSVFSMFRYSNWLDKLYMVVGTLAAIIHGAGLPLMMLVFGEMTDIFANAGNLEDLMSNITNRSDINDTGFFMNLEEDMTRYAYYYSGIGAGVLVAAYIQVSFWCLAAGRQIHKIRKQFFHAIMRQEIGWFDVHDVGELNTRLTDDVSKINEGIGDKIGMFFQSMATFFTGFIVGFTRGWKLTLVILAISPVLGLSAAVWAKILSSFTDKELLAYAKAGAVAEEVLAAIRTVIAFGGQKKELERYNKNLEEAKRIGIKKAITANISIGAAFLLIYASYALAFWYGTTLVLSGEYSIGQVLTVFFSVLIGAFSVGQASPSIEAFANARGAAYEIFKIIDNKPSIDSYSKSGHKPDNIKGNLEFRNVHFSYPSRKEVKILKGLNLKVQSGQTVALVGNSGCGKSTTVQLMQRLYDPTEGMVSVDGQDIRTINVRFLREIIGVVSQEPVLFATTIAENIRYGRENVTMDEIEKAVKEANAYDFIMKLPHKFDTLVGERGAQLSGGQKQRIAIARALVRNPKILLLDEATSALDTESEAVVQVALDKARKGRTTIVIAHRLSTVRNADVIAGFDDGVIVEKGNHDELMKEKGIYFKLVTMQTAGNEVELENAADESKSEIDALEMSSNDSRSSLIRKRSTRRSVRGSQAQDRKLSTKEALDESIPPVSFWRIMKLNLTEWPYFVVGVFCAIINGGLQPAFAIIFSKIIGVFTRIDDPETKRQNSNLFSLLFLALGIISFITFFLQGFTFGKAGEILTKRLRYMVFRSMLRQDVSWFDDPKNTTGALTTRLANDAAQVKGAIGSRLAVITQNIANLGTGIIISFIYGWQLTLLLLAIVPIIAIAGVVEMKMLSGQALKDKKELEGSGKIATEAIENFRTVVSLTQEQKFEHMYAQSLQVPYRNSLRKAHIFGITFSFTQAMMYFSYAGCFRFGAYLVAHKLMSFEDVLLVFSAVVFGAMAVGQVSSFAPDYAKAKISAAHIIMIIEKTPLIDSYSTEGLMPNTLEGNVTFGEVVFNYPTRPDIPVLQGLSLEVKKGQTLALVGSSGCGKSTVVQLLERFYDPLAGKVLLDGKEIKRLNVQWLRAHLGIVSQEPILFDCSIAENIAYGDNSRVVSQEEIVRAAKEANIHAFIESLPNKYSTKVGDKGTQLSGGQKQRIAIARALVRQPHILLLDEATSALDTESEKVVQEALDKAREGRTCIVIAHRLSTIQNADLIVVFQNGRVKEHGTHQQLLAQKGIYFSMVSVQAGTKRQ

## C[C@]12CC[C@H](OS(=O)(=O)O)CC1=CC[C@@H]1[C@@H]2CC[C@]2(C)C(c3ccc[n+]([O-])c3)=CC[C@@H]12 [N-oxide Abiraterone sulphate]
[1]; oral 14C-abiraterone acetate as capsules
  share of exposure of circulating metabolite in human plasma: about 43%

## CC(=O)O[C@H]1CC[C@@]2(C)C(=CC[C@@H]3[C@@H]2CC[C@]2(C)C(c4cccnc4)=CC[C@@H]32)C1 [Abiraterone acetate, (3β)-17-(3-pyridinyl) androsta-5,16-dien-3-yl acetate]
other
  solubility in water: practically insoluble
[2]
  effect on serum testosterone and other androgens: decreased
[3]; not told
  inhibition of P-gp: inhibitor of P-gp
  substrate of P-glycoprotein (P-gp): not substrates
[4]; clinical studies, below detectable levels in >99% of the analyzed samples
  Abiraterone acetate plasma concentrations: < 0.2 ng/mL
[1]
  compound present in feces, % of the administered dose: approximately 55%
[5]
  pKa of the aromatic nitrogen: 5.19

## CC(=O)c1cc(C(=O)N[C@@H](C)Cn2ccc(-c3ccc(C#N)c(Cl)c3)n2)[nH]n1 [keto-Darolutamide]
[6]; single dose 300 mg, fasting
  exposure to metabolite keto-Darolutamide compared with Darolutamide: 1.28 fold
[6]; single dose 300 mg, fed
  exposure to metabolite keto-Darolutamide compared with Darolutamide: 1.33 fold
[6]; single dose 600 mg, fasting
  exposure to metabolite keto-Darolutamide compared with Darolutamide: 1.44 fold
[6]; single dose 600 mg, fed
  exposure to metabolite keto-Darolutamide compared with Darolutamide: 1.61 fold

## CC(O)c1cc(C(=O)N[C@@H](C)Cn2ccc(-c3ccc(C#N)c(Cl)c3)n2)n[nH]1 (stereo partly drawn) [Darolutamide]
[6]; 300 mg single dose, fed
  Cmax after single dose under fed conditions: 2590 ng/mL
[6]; 600 mg single dose, fed
  Cmax after single dose under fed conditions: 3500 ng/mL
[6]; after 300 and 600 mg
  AUC(0-t last) fed state compared with fasting state: 2.5 fold
[6]; single oral dose 300 mg
  bioavailability fed versus fasting conditions: 2.5 fold
[6]; single oral dose 600 mg
  bioavailability fed versus fasting conditions: 2.8 fold
[6]; single-dose period
  overall median tmax: 3 to 6 h
  terminal half-life: 10 to 15 h
[7]
  blood-brain barrier penetration: negligible
[8]
  binding affinity compared with other AR antagonists (such as bicalutamide and enzalutamide): higher binding affinity
[9]; 300 mg
  Cmax,md versus Cmax after single dose under fed conditions: approximately 1.8 times
[9]; 300 mg BID
  geometric mean AUCtau(0-12)md: 44400 ng·h/mL
  mean linearity factor (RLIN): 0.910
  geometric mean Cmax,md: 4600 ng/mL
  median tmax.md: 4.98 h
[9]; 600 mg
  Cmax,md versus Cmax after single dose under fed conditions: ~1.7 times
[9]; 600 mg BID
  geometric mean AUCtau(0-12)md: 58700 ng·h/mL
  mean linearity factor (RLIN): 0.961
  geometric mean Cmax,md: 5800 ng/mL
  median tmax.md: 5.48 h
[9]; in vivo
  increase in exposure after multiple dosing with 600 mg BID versus 300 mg BID: 1.3 fold
[10]
  PSA levels: significant reductions

## C[C@]12CC[C@H](O)CC1=CC[C@@H]1[C@@H]2CC[C@]2(C)C(c3cccnc3)=CC[C@@H]12 [Abiraterone]
[3]; in vitro, clinically relevant concentrations
  substrate of P-glycoprotein (P-gp): not substrates
[11]
  bound to human plasma proteins: > 99%
[12]; [13]
  Abiraterone AUC0-28, fold higher with food: ~10 fold
  Abiraterone Cmax, fold higher with food: approximately 17 fold
[12]; [14]
  Abiraterone AUC0-28, fold higher with food: ~5 fold
  Abiraterone Cmax, fold higher with food: approximately 7 fold
[12]; [15]
  Abiraterone AUC0-28 (exposure) increase (food effect): ≤ 10 fold
  Abiraterone Cmax increase (food effect): up to 17 fold
[4]; [16]
  steady-state AUC (mean±SD): 993 ± 639 ng·h/mL
  steady-state C. (mean±SD): 226 ± 178 ng/mL
[4]; dose doubled from 1,000 to 2,000 mg
  increase in the mean AUC when dose doubled: 8%
[4]; human, in vivo
  apparent steady-state volume of distribution (mean±SD): 19,669±13,358 L
[4]; oral Abiraterone acetate, patients with metastatic CRPC
  median time to reach maximum plasma Abiraterone concentrations: 2 h
[4]; patients with metastatic CRPC
  mean terminal half-life of Abiraterone in plasma (mean±SD): 12 ± 5 h
[4]; steady-state vs single 1,000 mg dose of Abiraterone acetate
  accumulation: steady-state AUC compared to a single 1,000 mg dose: 2 fold
[1]
  compound present in feces, % of the administered dose: ~22%

## (3β)-17-(3-pyridinyl) androsta-5,16-dien-3-yl acetate [Abiraterone acetate]
[1]; oral administration
  radioactive dose recovered in feces: approximately 88%
  radioactive dose recovered in urine: approximately 5%
